Tested on: P. methanolica cells (strain CBS6515), UV-mutagenized
Assay: Nystatin enrichment for auxotrophic mutants; titering of colony forming units of treated versus control cells
Type: cell-based, Pichia methanolica
Details: 1 mg nystatin added to remainder of 500 ml culture (50 ml set aside as control) in minimal broth with 5 g/L ammonium sulfate, 1 additional hour with shaking
Procedure: Large-scale mutagenesis was then carried out using a 2-second UV exposure to provide about 20% killing. Cells were plated at approximately 10^4 cells/plate onto eight YEPD plates that were supplemented with 100 mg/L each of uracil, adenine, and leucine, which were added to supplement the growth of potential auxotrophs having the cognate deficiencies. Following UV exposure the plates were wrapped in foil and incubated overnight at 30° C. The following day the colonies on the plates (~10^5 total) were resuspended in water and washed once with water. An amount of cell suspension sufficient to give an OD600 of 0.1-0.2 was used to inoculate 500 ml of minimal broth made with yeast nitrogen base without amino acids or ammonia, supplemented with 1% glucose and 400 μg/L biotin. The culture was placed in a 2.8 L baffled Bell flask and shaken vigorously overnight at 30° C. The following day the cells had reached an OD600 of ~1.0-2.0. The cells were pelleted and resuspended in 500 ml of minimal broth supplemented with 5 g/L ammonium sulfate. The cell suspension was placed in a 2.8 L baffled Bell flask and shaken vigorously at 30° C. for 6 hours. 50 ml of the culture was set aside in a 250-ml flask as a control, and to the remainder of the culture was added 1 mg nystatin (Sigma Chemical Co., St. Louis, Mo.) to select for auxotrophic mutants (Snow, Nature 211:206-207, 1966). […]

With C[C@@H]1[C@H](O)[C@@H](C)/C=C/C=C/CC/C=C/C=C/C=C/C=C/C(O[C@H]2O[C@H](C)[C@@H](O)[C@H](N)[C@@H]2O)CC2O[C@](O)(CC(O)C(O)CCC(O)CC(O)CC(O)CC(=O)O[C@H]1C)CC(O)C2C(=O)O (stereo partly shown) [nystatin] the “decrease in the number of viable cells (colony forming units) by a factor” value was 10^4.

Reference: patent publication US6153424A, “Protease-deficient strains of Pichia methanolica” (ZymoGenetics, Inc., priority 1999, dated 2000)
